Data: patent USRE49816E1, “Dipeptides as inhibitors of human immunoproteasomes” (CORNELL UNIVERSITY, priority 2014, dated 2024)
pIC50, pKi: −log10 of the molar value.

What was measured:
hu c-20S β5c-subunit = hu c-20S β5c-subunit (Homo sapiens, UniProt P20618+P28074); assay: N,C-capped dipeptides IC50, succ-LLVY-AMC fluorescence assay; assay type: biochemical
Method: (§1) All inhibitory assays for N,C capped dipeptides were performed in a black solid-bottom 96-well plate. In general, compound plates were prepared starting from 10 mM in 3× series dilution to 15 μM. 1 μl of DMSO stock was transferred to a black 96-well plate and 100 μL of reaction mixture were added 15 μM N-acetyl-Alanine-Asparagine-Tryptophan-7-amino-4-methylcourmarin (Ac-ANW-AMC) or 25 μM succinyl-Leucine-Leucine-Valine-Tyrosine-7-amino-4-methyl-courmarin (succ-LLVY-AMC), 0.4 nM hu i-20S β5i-subunit or 0.2 nM hu c-20S β5c-subunit, 0.02% SDS, 1% BSA, 0.5 mM EDTA in 20 mM HEPES buffer at pH7.5. The plates were then spun at 1000 rpm for 1 minute, and the fluorescence units of each well were recorded at λex=360 nm, λem=460 nm for 2 hours. The slopes of the initial linear range of the time course were used to calculate the velocity, and relative activities were normalized to the velocities of the DMSO control.

Karpas 1106p cells [1] = assay: Cytotoxicity (LD50) against Karpas lymphoma cells; assay type: cell-based, human; details: Table 3
Source text: Table 3 lists the inhibition kinetic parameters, selectivity index, and calculated log Ps of selected dipeptides.

Karpas 1106p cells [2] = assay: Cytotoxicity (LD50) against Karpas lymphoma cells; assay type: cell-based, human; details: Table 4
[3] = system: proteasome inside the Karpas 1106p cells; assay: Cell-based Proteasome-Glo assay after compound removal; parameters: species or system human; details: 4 hours, read-out: Proteasome-glo β5-IC50
hu i-20S β5i-subunit = hu i-20S β5i-subunit (Homo sapiens, UniProt P20618+P28062); assay: N,C-capped dipeptides IC50, Ac-ANW-AMC fluorescence assay; assay type: biochemical; details: for SI (selectivity index): Hu c-20S over Hu i-20S
Method: as §1

hu i-20S β5i = hu i-20S β5i (Homo sapiens, UniProt P20618+P28062); assay: Kinetic parameters of oxathiazolones vs hu i-20S β5i; assay type: biochemical

Row | Compound | pIC50 (hu c-20S β5c-subunit) | LD50 (Karpas 1106p cells [1]) [µM] | LD50 Karpas (Karpas 1106p cells [2]) [µM] | pIC50 [3] | pIC50 (hu i-20S β5i-subunit) | SI (selectivity index) (hu i-20S β5i-subunit) | pKi (hu i-20S β5i)
1 | COC[C@H](NC(=O)OC(C)(C)C)C(=O)N[C@@H](C)C(=O)NCc1cccc2ccccc12 [DPLG-2032, tert-butyl ((S)-3-methoxy-1-(((S)-1-((naphthalen-1-ylmethyl)amino)-1-oxopropan-2-yl)amino)-1-oxopropan-2-yl)carbamate] | < 4.00 | 37 | >100 | < 4.00 | 4.11 |  | 
2 | C[C@H](NC(=O)[C@H](CC(=O)NOC(C)(C)C)NC(=O)CCc1ccccc1)C(=O)NCc1cccc2ccccc12 [DPLG-2058] |  | 34.4 | 34.4 | 8.05 |  |  | 
3 | C[C@H](NC(=O)[C@H](CC(=O)NOC(C)(C)C)NC(=O)CCc1ccccc1)C(=O)NCc1cccc2[nH]ccc12 [DPLG-2083, (S)—N^1—((S)-1-(((1H-indol-4-yl)methyl)amino)-1-oxopropan-2-yl)-N^4-(tert-butoxy)-2-(3-phenylpropanam-ido)succinamide] | 6.62 | 0.254 | 0.254 | 6.80 | 7.60 | 10 | 
4 | Cc1ccc(S(=O)(=O)N[C@@H](CC(=O)NOC(C)(C)C)C(=O)N[C@@H](C)C(=O)NCc2cccc3ccccc23)cc1 [DPLG-2091, (S)—N4-(tert-butoxy)-2-((4-methylphenyl)sulfonamido)-N1-((S)-1-((naphthalen-1-ylmethyl)amino)-1-oxopropan-2-yl)succinamide] | 5.64 | 5.3 | 5.3 | 7.19 | 7.59 | 88 | 
5 | C[C@H](NC(=O)[C@H](CC(=O)NOC(C)(C)C)NC(=O)C(F)(F)F)C(=O)NCc1cccc2ccccc12 [DPLG-2106, (S)—N4-(tert-butoxy)-N1-((S)-1-((naphthalen-1-ylmethyl)amino)-1-oxopropan-2-yl)-2-(2,2,2-trifluoroacetamido)succinamide] |  | 7.8 | 7.8 | 5.84 |  |  | 
6 | C[C@H](NC(=O)[C@H](CC(=O)NOC(C)(C)C)NC(=O)CCCc1ccccc1)C(=O)NCc1cccc2ccccc12 [DPLG-2127, (S)—N4-(tert-butoxy)-N1-((S)-1-((naphthalen-1-ylmethyl)amino)-1-oxopropan-2-yl)-2-(4-phenylbutanamido)succinamide] |  | >100 | >100 | 6.80 |  |  | 
7 | C[C@H](NC(=O)[C@H](CC(=O)NC1COC1)NC(=O)CCc1ccccc1)C(=O)NCc1cccc2ccccc12 [DPLG-2130, (S)—N1-((S)-1-((naphthalen-1-ylmethyl)amino)-1-oxopropan-2-yl)-N4-(oxetan-3-yl)-2-(3-phenylpropanamido)succinamide] |  | 67.8 | 67.8 | 5.95 |  |  | 
8 | COC[C@H](NC(=O)[C@H](CC(=O)NOC(C)(C)C)NC(=O)CN1CCOCC1)C(=O)NCc1cccc2ccccc12 [DPLG-2143, (S)—N^4-(tert-butoxy)-N^1—((S)-3-methoxy-1-((naphthalen-1-ylmethyl)amino)-1-oxopropan-2-yl)-2-(2-morpholinoacetamido)succinamide] | 4.71 | >100 |  |  | 6.60 | 78 | 
9 | COC[C@H](NC(=O)[C@H](CC(=O)NOC(C)(C)C)NC(=O)c1cc(C)on1)C(=O)NCc1cccc2ccccc12 [DPLG-2144, (S)—N^4-(tert-butoxy)-N^1—((S)-3-methoxy-1-((napthalen-1-ylmethyl)amino)-1-oxopropan-2-yl)-2-(5-methylisoxazole-3-carboxamido)succinamide] | 6.21 | 1.47 |  |  | 8.05 | 69 | 
10 | COC[C@H](NC(=O)[C@H](CC(=O)NOC(C)(C)C)NS(=O)(=O)c1ccc(C)cc1)C(=O)NCc1cccc2ccccc12 [DPLG-2150, (S)—N^4-(tert-butoxy)-N^1—((S)-3-methoxy-1-((naphthalen-1-ylmethyl)amino)-1-oxopropan-2-yl)-2-((4-methylphenyl)sulfonamido)succinamide] | 6.21 | 0.8 | 0.8 | 8.05 | 8.36 | 139 | 
11 | COC[C@H](NC(=O)[C@H](CC(=O)NOC(C)(C)C)NC(=O)CCc1ccccc1)C(=O)NCc1cccc(OC)c1 [DPLG-2160, (S)—N^4-(tert-butoxy)-N^1—-((S)-3-methoxy-1-((3-methoxybenzyl)amino)-1-oxopropan-2-yl)-2-(3-phenylpropanamido)succinamide] | 7.01 | 0.05 | 0.05 | 7.72 | 8.03 | 10 | 
12 | COC[C@H](NC(=O)[C@H](CC(=O)NOC(C)(C)C)NC(=O)CCc1ccccc1)C(=O)NCc1cccc(OC)c1OC [DPLG-2211] | 5.89 | 4.18 |  |  | 6.61 | 5 | 
13 | COC[C@H](NC(=O)[C@H](CC(=O)NC1COC1)NS(C)(=O)=O)C(=O)NCc1cccc2ccccc12 [DPLG-2219, (S)—N^1—((S)-3-methoxy-1-((naphthalen-1-ylmethyl)amino)-1-oxopropan-2-yl)-2-(methylsulfonamido)-N^4-(oxetan-3-yl)succinamide] | < 4.00 | >100 |  |  | 5.33 | >21 | 
14 | COC[C@H](NC(=O)[C@H](CC(=O)NOC(C)(C)C)NC(=O)CCc1ccccc1)C(=O)NCc1cccc2cccnc12 [DPLG-2220] | 5.87 | 6.27 |  |  | 7.15 | 19 | 
15 | COC[C@H](NC(=O)[C@H](CC(=O)NOC(C)(C)C)NC(=O)Cc1ccccc1)C(=O)NCc1cccc2ccccc12 [DPLG-2222, (S)—N^4-(tert-butoxy)-N^1—((S)-3-methoxy-1-((naphthalen-1-ylmethyl)amino)-1-oxopropan-2-yl)-2-(2-phenylacetamido)succinamide] | 6.13 | >100 |  |  | 7.96 | 70 | 
16 | COC[C@H](NC(=O)[C@H](CC(=O)NOC(C)(C)C)NC(=O)CCCc1ccccc1)C(=O)NCc1cccc2ccccc12 [DPLG-2223, (S) N^4-(tert-butoxy)-N^1—((S)-3methoxy-1-((naphthalen-1-ylmethyl)amino)-1-oxopropan-2-yl)-2-(4-phenylbutanamido)succinamide] | 6.12 | 4.47 |  |  | 8.19 | 118 | 
17 | CC(C)[C@H](NC(=O)[C@H](CC(=O)NOC(C)(C)C)NC(=O)CCc1ccccc1)C(=O)NCc1cccc2ccccc12 [DPLG-2224, (S)—N^4-(tert-butoxy)-N^1—((S)-3-methyl-1-((naphthalen-1-ylmethyl)amino)-1-oxobutan-2-yl)-2-(3-phenylpropanamido)succinamide] | 6.64 | >100 |  |  | 8.37 | 53 | 
18 | COC[C@H](NC(=O)[C@H](CC(=O)NOC(C)(C)C)NC(=O)CCc1ccccc1)C(=O)NCc1cccc2c1NCCC2 [DPLG-2226, (S)—N^4-(tert-butoxy)-N^−1—((S)-3-methoxy-1-oxo-1-(((1,2,3,4-tetrahydroquinolin-8-yl)methyl)amino)propan-2-yl)-2-(3-phenylpropanamido)succinamide] | 4.11 | >100 |  |  | 5.94 | 68 | 
19 | COC[C@H](NC(=O)[C@H](CC(=O)NC1COC1)NS(=O)(=O)c1ccc(C)cc1)C(=O)NCc1cccc2ccccc12 [DPLG-2229] | 4.71 | >100 |  |  | 7.16 | 236 | 
20 | C[C@H](NC(=O)[C@H](CCC(=O)NC(C)(C)C)NC(=O)CCc1ccccc1)C(=O)NCCc1cccc2ccccc12 [DPLG-3012] | 5.02 | 4.16 |  |  | 6.03 | 10.4 | 
21 | C[C@H](NC(=O)[C@H](CCC(=O)NC(C)(C)C)NC(=O)CCc1ccccc1)C(=O)NOc1ccccc1 [DPLG-3013] | 6.18 | 11.03 |  |  | 6.64 | 2.9 | 
22 | Cc1ccc(S(=O)(=O)N[C@@H](CCC(=O)NC(C)(C)C)C(=O)N[C@@H](C)C(=O)NCc2cccc(C(F)(F)F)c2)cc1 [DPLG-3014] | 6.38 | 0.96 |  |  | 7.60 | 17 | 
23 | Cc1ccc(S(=O)(=O)N[C@@H](CCC(=O)NC(C)(C)C)C(=O)N[C@@H](C)C(=O)NOc2ccccc2)cc1 [DPLG-3017] | 6.22 | 6.33 |  |  | 7.00 | 6 | 
24 | CC(C)(C)NC(=O)C[C@H](NC(=O)CCc1ccccc1)C(=O)N[C@@H](Cc1ccc(F)cc1)C(=O)NCc1cccc2ccccc12 [DPLG-3066] | < 4.00 | 0.198 |  |  | 8.28 | >19000 | 
25 | CC(C)(C)NC(=O)CC[C@H](NC(=O)CCc1ccccc1)C(=O)N[C@@H](Cc1ccc(F)cc1)C(=O)NCc1cccc2ccccc12 [DPLG-3083] | 6.52 | 1.20 |  |  | 8.48 | 90 | 
26 | CC(C)(C)NC(=O)C[C@H](NC(=O)C(=O)c1c[nH]c2ccccc12)C(=O)N[C@@H](Cc1ccc(F)cc1)C(=O)NCc1cccc2ccccc12 [DPLG-3084] | 7.43 | 0.084 |  |  | 8.85 | 26 | 
27 | O=c1oc(-c2ccc(-c3ccccc3)cc2)ns1 [HT2004] |  |  |  |  |  |  | 5.85
